Ends that are not written are not given here. Peptide text beside a SMILES is read from it.

In one test the target is LDLR (Homo sapiens, UniProt P01130). In words: LDLR binding (SPR), high surfactant preparation.
Chain of LDLR (P01130 22-860): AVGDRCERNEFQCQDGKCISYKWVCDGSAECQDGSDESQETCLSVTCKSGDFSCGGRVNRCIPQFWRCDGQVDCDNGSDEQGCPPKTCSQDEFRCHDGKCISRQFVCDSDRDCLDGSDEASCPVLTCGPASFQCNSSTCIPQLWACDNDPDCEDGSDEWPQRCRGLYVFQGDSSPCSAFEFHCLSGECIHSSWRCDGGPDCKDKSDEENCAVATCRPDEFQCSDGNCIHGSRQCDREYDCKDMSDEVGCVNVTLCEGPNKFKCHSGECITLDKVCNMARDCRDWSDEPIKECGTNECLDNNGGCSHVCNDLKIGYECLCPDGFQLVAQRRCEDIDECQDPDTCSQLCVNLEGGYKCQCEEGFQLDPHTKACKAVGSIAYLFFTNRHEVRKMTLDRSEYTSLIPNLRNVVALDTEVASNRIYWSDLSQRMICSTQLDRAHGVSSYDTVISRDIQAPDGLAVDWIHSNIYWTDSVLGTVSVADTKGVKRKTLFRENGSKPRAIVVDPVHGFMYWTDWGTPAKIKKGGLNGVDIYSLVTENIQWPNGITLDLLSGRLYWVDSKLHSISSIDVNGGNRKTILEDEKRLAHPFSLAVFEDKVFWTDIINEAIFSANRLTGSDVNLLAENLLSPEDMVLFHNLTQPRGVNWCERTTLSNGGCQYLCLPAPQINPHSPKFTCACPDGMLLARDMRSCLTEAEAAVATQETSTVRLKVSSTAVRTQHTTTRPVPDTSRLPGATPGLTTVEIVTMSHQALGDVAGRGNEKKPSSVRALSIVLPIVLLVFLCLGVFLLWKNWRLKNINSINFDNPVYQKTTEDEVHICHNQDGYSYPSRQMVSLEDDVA
Settings: not given
As to the method:
The table shown in FIG. 23 illustrates LDLR binding data (SPR), using a high surfactant preparation. Recombinant LDLR was diluted in 10 mM acetate buffer pH 4.5 and amine coupled to a CM5 chip at 1000 RU. Peptides were diluted to 5 μM in running buffer (HBS-P+, 1 mM CaCl2) and serially diluted 1:3 for 5 total concentrations. Peptides were exposed to immobilized LDLR at a rate of […] for 120 seconds. Between cycles, the chip surface was regenerated with 3 injections of 50 mM NaOH/100 mM EDTA. Multi-Cycle Kinetics was performed on a Biacore Insight Evaluation Software and binding kinetics were analyzed with a 1:1 binding model.
What is called Kd is the concentration at which binding is half-saturated. In turn, `CC(C)C[C@H](NC(=O)[C@H](CCCNC(=N)N)NC(=O)[C@H](CC(=O)O)NC(=O)[C@H](CCC(N)=O)NC(=O)[C@H](CC(C)C)NC(=O)[C@H](CCCCN)NC(=O)[C@H](CC(=O)O)NC(=O)CNC(=O)[C@H](CC(=O)O)NC(=O)[C@H](CCCNC(=N)N)NC(=O)[C@H](CC(C)C)NC(=O)[C@H](CC(C)C)NC(=O)[C@H](CCCNC(=N)N)NC(=O)[C@H](CCCNC(=N)N)NC(=O)[C@H](CCCNC(=N)N)NC(=O)[C@H](CC(C)C)NC(=O)[C@H](CCCNC(=N)N)NC(=O)[C@H](CCCNC(=N)N)NC(=O)[C@H](CC(C)C)NC(=O)[C@@H](N)Cc1c[nH]cn1)C(=O)N[C@@H](C)C(=O)N[C@@H](CCC(=O)O)C(=O)N[C@@H](Cc1ccc(O)cc1)C(=O)N[C@@H](CCC(N)=O)C(=O)N[C@@H](C)C(=O)N[C@@H](CCCNC(=N)N)C(=O)N[C@@H](C)C(=O)N[C@@H](CCCCN)C(=O)N[C@@H](CCC(=O)O)C(=O)N[C@@H](C)C(=O)N[C@@H](Cc1ccccc1)C(=O)N[C@@H](CC(=O)O)C(=O)N[C@@H](CCCNC(=N)N)C(=O)O` [T-041] (H-HLRRLRRRLLRDGDKLQDRLAEYQARAKEAFDR-OH) displayed a Kd of under 10 µM. Still for that read-out and setting: under “DAWERFRALFKELADYFRLGQSTEELRVRLASHLRKLRKRLLRDADDLQKRLAVYQA [T-116]” stands under 10 µM; under “MEDVRGRLVQYRGEVQAMLGQSTEELRVRLASHLRKLRKRLLRDADDLQKRLAVYQA [T-068]”, under 10 µM.

Still in this test, the particulars now being: high surfactant preparation (HBS-P+), 1:1 binding model; read-out: binding KD to LDLR.
On to `CC(C)C[C@H](NC(=O)[C@H](CCCNC(=N)N)NC(=O)[C@H](CCCCN)NC(=O)[C@H](CCC(N)=O)NC(=O)[C@H](CC(C)C)NC(=O)[C@H](CCCCN)NC(=O)[C@H](CC(=O)O)NC(=O)CNC(=O)[C@H](CC(=O)O)NC(=O)[C@H](CCCNC(=N)N)NC(=O)[C@H](CC(C)C)NC(=O)[C@H](CC(C)C)NC(=O)[C@H](CCCNC(=N)N)NC(=O)[C@H](CCCCN)NC(=O)[C@H](CCCNC(=N)N)NC(=O)[C@H](CC(C)C)NC(=O)[C@H](CCCCN)NC(=O)[C@H](CCCNC(=N)N)NC(=O)[C@H](CC(C)C)NC(=O)[C@@H](N)Cc1c[nH]cn1)C(=O)N[C@@H](C)C(=O)N[C@@H](CCC(=O)O)C(=O)N[C@@H](Cc1ccc(O)cc1)C(=O)N[C@@H](CCC(N)=O)C(=O)N[C@@H](C)C(=O)N[C@@H](CCCNC(=N)N)C(=O)N[C@@H](C)C(=O)N[C@@H](CCCCN)C(=O)N[C@@H](CCC(=O)O)C(=O)N[C@@H](C)C(=O)N[C@@H](Cc1ccccc1)C(=O)N[C@@H](CC(=O)O)C(=O)N[C@@H](CCCNC(=N)N)C(=O)O` [T-052] (H-HLRKLRKRLLRDGDKLQKRLAEYQARAKEAFDR-OH), for which the dissociation constant (Kd) is under 10 µM. As to `CSCC[C@H](NC(=O)[C@H](CC(C)C)NC(=O)[C@H](CC(=O)O)NC(=O)[C@H](CCCCN)NC(=O)CNC(=O)[C@H](Cc1ccc(O)cc1)NC(=O)[C@H](CC(=O)O)NC(=O)[C@@H](NC(=O)[C@@H](NC(=O)[C@@H](NC(=O)[C@H](CCC(N)=O)NC(=O)[C@H](Cc1ccccc1)NC(=O)[C@H](Cc1ccc(O)cc1)NC(=O)[C@H](CCC(N)=O)NC(=O)[C@H](CO)NC(=O)[C@@H](NC(=O)[C@H](CC(C)C)NC(=O)[C@H](CO)NC(=O)[C@H](CCCNC(=N)N)NC(=O)[C@H](C)NC(=O)[C@H](CC(C)C)NC(=O)[C@H](CCCNC(=N)N)NC(=O)[C@H](CCCCN)NC(=O)[C@H](CCCNC(=N)N)NC(=O)[C@H](CC(C)C)NC(=O)[C@H](CCCCN)NC(=O)[C@H](CCCNC(=N)N)NC(=O)[C@H](CC(C)C)NC(=O)[C@H](Cc1c[nH]cn1)NC(=O)[C@H](CCCNC(=N)N)NC(=O)[C@H](C)NC(=O)[C@@H](N)CC(C)C)C(C)C)[C@@H](C)O)C(C)C)[C@@H](C)O)C(=O)O` [T-066] (H-LARHLRKLRKRLARSLVSQYFQTVTDYGKDLM-OH), the Kd was under 10 µM. On the same count and under the same terms, the value for `CC(C)C[C@H](NC(=O)[C@H](CCCNC(=N)N)NC(=O)[C@H](CC(=O)O)NC(=O)[C@H](CCC(N)=O)NC(=O)[C@H](CC(C)C)NC(=O)[C@H](CCCCN)NC(=O)[C@H](CC(=O)O)NC(=O)CNC(=O)[C@H](CC(=O)O)NC(=O)[C@H](CCCNC(=N)N)NC(=O)[C@H](CC(C)C)NC(=O)[C@H](CC(C)C)NC(=O)[C@H](CCCNC(=N)N)NC(=O)[C@H](CCCCN)NC(=O)[C@H](CCCNC(=N)N)NC(=O)[C@H](CC(C)C)NC(=O)[C@H](CCCCN)NC(=O)[C@H](CCCNC(=N)N)NC(=O)[C@H](CC(C)C)NC(=O)[C@@H](N)Cc1c[nH]cn1)C(=O)N[C@@H](C)C(=O)N[C@@H](CCC(=O)O)C(=O)N[C@@H](Cc1ccc(O)cc1)C(=O)N[C@@H](CCC(N)=O)C(=O)N[C@@H](C)C(=O)N[C@@H](CCCNC(=N)N)C(=O)N[C@@H](C)C(=O)N[C@@H](CCCNC(=N)N)C(=O)N[C@@H](CCC(=O)O)C(=O)N[C@@H](C)C(=O)N[C@@H](Cc1ccccc1)C(=O)N[C@@H](CC(=O)O)C(=O)N[C@@H](CCCNC(=N)N)C(=O)O` [T-055] (H-HLRKLRKRLLRDGDKLQDRLAEYQARAREAFDR-OH) was under 10 µM; that for `CC(C)C[C@H](NC(=O)[C@H](CCCNC(=N)N)NC(=O)[C@H](CC(=O)O)NC(=O)[C@H](CCC(N)=O)NC(=O)[C@H](CC(C)C)NC(=O)[C@H](CCCCN)NC(=O)[C@H](CC(=O)O)NC(=O)CNC(=O)[C@H](CC(=O)O)NC(=O)[C@H](CCCNC(=N)N)NC(=O)[C@H](CC(C)C)NC(=O)[C@H](CC(C)C)NC(=O)[C@H](CCCNC(=N)N)NC(=O)[C@H](CCCCN)NC(=O)[C@H](CCCNC(=N)N)NC(=O)[C@H](CC(C)C)NC(=O)[C@H](CCCCN)NC(=O)[C@H](CCCNC(=N)N)NC(=O)[C@H](CC(C)C)NC(=O)[C@@H](N)Cc1c[nH]cn1)C(=O)N[C@@H](C)C(=O)N[C@@H](CCC(=O)O)C(=O)N[C@@H](Cc1ccc(O)cc1)C(=O)N[C@@H](CCC(N)=O)C(=O)N[C@@H](C)C(=O)N[C@@H](CCCNC(=N)N)C(=O)N[C@@H](C)C(=O)N[C@@H](CCCCN)C(=O)N[C@@H](CCC(=O)O)C(=O)N[C@@H](C)C(=O)N[C@@H](Cc1ccccc1)C(=O)N[C@@H](CC(=O)O)C(=O)N[C@@H](CCCNC(=N)N)C(=O)O` [T-040] (H-HLRKLRKRLLRDGDKLQDRLAEYQARAKEAFDR-OH) was under 10 µM. For the molecule `CC(C)C[C@H](NC(=O)[C@H](CCCNC(=N)N)NC(=O)[C@H](CC(=O)O)NC(=O)[C@H](CCC(N)=O)NC(=O)[C@H](CC(C)C)NC(=O)[C@H](CCCCN)NC(=O)[C@H](CC(=O)O)NC(=O)CNC(=O)[C@H](CC(=O)O)NC(=O)[C@H](CCCNC(=N)N)NC(=O)[C@H](Cc1ccccc1)NC(=O)[C@H](CC(C)C)NC(=O)[C@H](CCCNC(=N)N)NC(=O)[C@H](CCCCN)NC(=O)[C@@H](NC(=O)[C@H](CC(C)C)NC(=O)[C@H](CCCCN)NC(=O)[C@H](CCCNC(=N)N)NC(=O)[C@H](CC(C)C)NC(=O)[C@@H](N)Cc1c[nH]cn1)C(C)C)C(=O)N[C@@H](C)C(=O)N[C@@H](CCC(=O)O)C(=O)N[C@@H](Cc1ccc(O)cc1)C(=O)N[C@@H](CCC(N)=O)C(=O)N[C@@H](C)C(=O)N[C@@H](CCCNC(=N)N)C(=O)N[C@@H](C)C(=O)N[C@@H](CCCCN)C(=O)N[C@@H](CCC(=O)O)C(=O)N[C@@H](C)C(=O)N[C@@H](Cc1ccccc1)C(=O)N[C@@H](CC(=O)O)C(=O)N[C@@H](CCCNC(=N)N)C(=O)O` [T-059] (H-HLRKLVKRLFRDGDKLQDRLAEYQARAKEAFDR-OH), the equilibrium dissociation constant (Kd) is under 10 µM.

Test system in a further test: not listed separately
Kind of test: DMPC solubility assay, 0.5 mM DMPC (turbidity reduction). The class given is biochemical. To be noted: 3.16-100 μM peptides, 15 minutes. As to the method:
In this example, peptide stocks were diluted to 200 μM in H2O (a 2× solution) and 50 μL of peptide solution was transferred in triplicate into 96-well plates. A one mM solution of 1,2-dimyristoyl-sn-glycero-3-phosphocholine (DMPC) in H2O was prepared, and using a multichannel pipet, 50 μL DMPC solution was rapidly added to the plate. Peptide and lipid solutions were incubated at room temperature for 15 minutes with a final concentration of 100 μM peptides and 0.5 mM DMPC. After 15 minutes, absorbance was read on a plate reader at 405 nm. […] Data are presented as mean+SD over two runs.
In these experiments, DMPC solubility titration curves were generated. Peptide stocks were diluted to 200 μM in H2O (a 2× solution) and serially diluted in H2O over 4 concentrations, then 50 μL of peptide solutions were distributed in triplicate into 96-well plates. A 1 mM solution of 1,2-dimyristoyl-sn-glycero-3-phosphocholine (DMPC) in H2O was prepared, and using a multichannel pipet, 50 μL DMPC solution was rapidly added to the plate. Peptide and lipid solutions were incubated at room temperature for 15 minutes with final concentrations of 3.16-100 μM peptides and 0.5 mM DMPC. After 15 minutes, absorbance was read on a plate reader at 405 nm. […] Data are presented as mean+SD over two runs. Non-linear regression was used to calculate EC50 values.
The term EC50 denotes the concentration needed to bring the measured effect to its halfway point. The low end stands for higher potency in that assay, the high end for lower potency in that assay. Turning to “HLRKLRKRLLRDADDLQDRLAEYQARAKEAFDR [T-063, therapeutic peptide]”, the concentration giving a half-maximal response (EC50) was 111 µM. In turn, “HLRKLRKRLLRDGDDLQDRLAEYQARAKEAFDR [T-051, therapeutic peptide]” showed an EC50 of 15.6 µM.

The same test, now with this note: FIGS. 2A-2D and 3A-3C.
Consider “T-011: therapeutic peptide (DADDLQKRLAVYQAGAREGAER)”, for which the DMPC solubilizing activity entry is “significant activity”. For the molecule “T-019: therapeutic peptide (NMDEINKRLHAYEEGVKKAADE)”, the DMPC solubilizing activity result is listed as “significant activity”. On to “T-099: therapeutic peptide (RRMKDYLKKFQETLKREFRDWE)”, for which the DMPC solubilizing activity entry is recorded as “did not have significant solubilizing activity”. Same read-out and setting: the value for “T-020: therapeutic peptide (DGDKLCDRLAEYCARAKEAFDR)” was “did not have significant solubilizing activity”; that for “T-010: therapeutic peptide (RDADDLQKRLAVYQAGAREGAE)” was “significant activity”. For T-015: therapeutic peptide (LVGRQLEEFL), the DMPC solubilizing activity result is recorded as “did not have significant solubilizing activity”. For the molecule “T-006: therapeutic peptide (QDEPPQSPWDRVKDLATVYVDVLKDSGRDYVSQFEGSALGKQLN)”, the DMPC solubilizing activity result is listed as “significant activity”.

Source of the values: patent publication US20260115250A1, “METHODS OF TREATING AGE-RELATED MACULAR DEGENERATION” (Character Biosciences, Inc., priority 2022, published 2026).
